Data taken from patent US20130345163A1, “BIOLOGICAL MARKER FOR INFLAMMATION” (CAN-FITE BIOPHARMA LTD., priority 2004, published 2013).

Experiments:
A3AR [1] = assay: A3AR protein expression level by Western blot in tissues of AIA rats; assay type: in vivo, rat
Protocol: (§1) Female Lewis rats, aged 8-12 weeks were obtained from Harlan Laboratories (Jerusalem, Israel). Rats were maintained on a standardized pelleted diet and supplied with tap water. Experiments were performed in accordance with the guidelines established by the Institutional Animal Care and Use Committee at Can-Fite BioPharma, Petah Tikva, Israel. The rats were injected subcutaneously (SC) at the tail base with 100 μl of suspension composed of incomplete Freund's adjuvant (IFA) with 10 mg/ml heat killed Mycobacterium tuberculosis, (Mt) H37Ra, (Difco, Detroit, USA). Each group contained 10 animals.
(§2) Treatment with IB-MECA (10 μg/kg) was initiated on day 14 after vaccination and was orally administered by gavage, twice daily. Another group was treated with Methotrexate (MTX) (1.5 mg/kg) intraperitoneally every 3 days, starting on day 14th after vaccination. The control group in each experiment received vehicle only (DMSO in a dilution corresponding to that of the drugs).
The hind paws were dissected above the ankle joint. The bony tissue was broken into pieces, snap frozen in liquid nitrogen and stored at −80° C. until use. To prepare a protein extract, RIPA buffer (containing 150 mM NaCl, 50 mM Tris, 1% NP40, 0.5% Deoxycholate and 0.1% SDS) was added to the paw tissue (4 ml/gr of tissue). The mixture was homogenized on ice with a polytron and centrifuged.
Synovial tissue was removed and synovial cells were separated by incubating the tissue in RPMI containing 1 mg/ml Collagenase IV and 0.1 mg/ml DNase with a vigorous shaking (200 rpm) at 37° C. for 30 min. The supernatant containing the synovial cells was collected and the undigested tissue was re-extracted. The supernatants from both extractions were combined and cells were washed with PBS. Protein extracts were prepared. […]
Western blot analysis (WB) of synovial, paw, spleen and lymph nodes were carried out according to the following protocol. […] Protein concentrations were determined using the Bio-Rad protein assay dye reagent. […] Bands were recorded using BCIP/NBT color development kit (Promega, Madison, Wis., USA).

A3AR [2] = assay: A3AR level in peripheral blood mononuclear cells of RA patients by Western blot; assay type: in vivo, human
Protocol: Protein concentrations were determined using the Bio-Rad protein assay dye reagent. Equal amounts of the sample (50 μg) were separated by SDS-PAGE, using 12% polyacrylamide gels. […] Bands were recorded using BCIP/NBT color development kit (Promega, Madison, Wis., USA).

RA patients = assay: Clinical study of CF101 in RA patients, ACR response; assay type: in vivo, human
Protocol: Blood was withdrawn from RA patients who were enrolled in a clinical study sponsored by Can-Fite BioPharma, in which the effect of CF101, a clinical grade IB-MECA, on arthritic patients was evaluated. The patients randomly received 0.1, 1.0 or 4.0 mg of CF101 twice daily. Blood was withdrawn at 2 time points: (a) after a washout period of 4-6 weeks from a previous treatment and before CF101 treatment was initiated—this was considered as baseline level; (b) after 3 months of treatment with CF101. Peripheral blood mononuclear cells were separated and protein was extracted as described above. In addition, C reactive protein (CRP) values, the number of tender and swollen joints, the physicians global assessment, the patient own assessment, the pain score and the disability score were recorded and the ACR score was calculated for each patient (ACR is a score that is calculated according to criteria established by the American College of Rheumatology, based on the aforementioned measures, to evaluate the effectiveness of drugs for treatment of RA; ACR 20, ACR 50 and ACR 70 respectively represent a 20%, 50% and 70% improvement in this score).

[3] = test system: Adjuvant Induced Arthritis (AIA) rats; assay: Adjuvant induced arthritis (AIA) model in rats, clinical disease activity score; assay type: in vivo, rat; settings: CF101 10 μg/kg orally twice daily from day 14 after immunization, MTX 1.5 mg/kg intraperitoneally every 3 days from day 14, vs vehicle
Protocol: as §1, §2
Clinical Disease Activity Score was assessed as follows: the animals were inspected every second day for clinical arthritis. […] The clinical score was calculated by adding the four individual legs' score. The inflammatory intensity was also determined in accordance with the increase in the rat hind paw's diameter, measured by caliper (Mitotoyo, Tokyo, Japan).

[4] = out of 17 RA patients, 3 months of CF101

CNC(=O)[C@H]1O[C@@H](n2cnc3c(NCc4cccc(I)c4)ncnc32)[C@H](O)[C@@H]1O [CF101, N^6-(3-iodobenzyl)-adenosine-5′-N-methyluronamide]
A3AR expression level in peripheral hematopoietic tissues (spleen and lymph node) (A3AR [1]; AIA rats treated with IB-MECA, low in naïve animals, high in AIA): low expression
A3AR protein expression level in inflammatory tissues (paw & synovial) (A3AR [1]; AIA rats, upon IB-MECA treatment vs untreated AIA): down-regulated
A3AR level in PBMNC of non-responders (A3AR [2]; after 3 months CF101 treatment vs baseline): essentially no change
A3AR level in PBMNC of ACR 50 and ACR 70 responders (A3AR [2]; after 3 months CF101 treatment vs baseline (initial high level)): reduced
responders with ACR 20 only response (RA patients; [4]): 4 patients
responders with ACR 50 response (RA patients; [4]): 5 patients
responders with ACR 70 response (RA patients; [4]): 3 patients
non-responders (not even an ACR 20 response) (RA patients; out of 17 RA patients, 3 months of CF101 0.1, 1.0 or 4.0 mg twice daily): 5 patients
other parameters, particularly number of swollen and tender joints, in patient no. 1517 (RA patients; single RA patient with no ACR response (CRP change below 0%), 3 months of CF101): very significant improvement
disease severity evaluated by the arthritis clinical score [3]: significant decrease

CN(Cc1cnc2nc(N)nc(N)c2n1)c1ccc(C(=O)N[C@@H](CCC(=O)O)C(=O)O)cc1 [methotrexate, reference compound]
A3AR expression profile in lymph nodes (LN) (A3AR [1]; AIA rats treated with MTX, compared with pattern seen with IB-MECA): a similar A3AR expression profile was observed
level of the A3AR in PBMNCs (A3AR [2]; 4 RA patients, prior to vs after onset of treatment with methotrexate): increase
disease severity evaluated by the arthritis clinical score [3]: significant decrease
